# In patent publication US20200061090A1, “AGENT FOR PREVENTING WORSENING OF INSULIN RESISTANCE OR AMELIORATING INSULIN RESISTANCE” (B FOOD SCIENCE CO., LTD., priority 2017, published 2020):
# Key:
# [1] = system: OLETF (Otsuka Long-Evans Tokushima Fatty) rats; assay: Effect of 1-kestose on type 2 diabetes model OLETF rats: plasma insulin and blood glucose; assay type: in vivo, rat; details: for Plasma insulin level / Blood glucose level: 14 days, average ± SD; for Plasma insulin level: Group C control 3.36 ± 0.53; for Blood glucose level: Group C control 151 ± 6
# Protocol: (§1) OLETF (Otsuka Long-Evans Tokushima Fatty) rats (Japan SLC, Inc.), which are model animals with pathological conditions of type 2 diabetes, and LETO (Long-Evans Tokushima Otsuka) rats (Japan SLC, Inc.), which are the controls thereof, were prepared. The LETO rats were divided into 2 groups of 5 rats each to be Group A and Group B. Further, the OLETF rats were divided into 3 groups of 8 rats each to be Group C, Group D, and Group E. During the breeding period, Group A and Group C had discretionary intake of “feed without 1-kestose” described in Example 1 (1), Group B and Group E had discretionary intake of “feed containing 5 mass % of 1-kestose”, and Group D had discretionary intake of “feed containing 1 mass % of 1-kestose”. The rats were bred for 14 days with the same breeding conditions as Example 1 (1)
# (§2) For the rats of each Group of this Example 3 (1), plasma insulin levels and blood glucose levels were measured by the method described in Example 1 (2) to calculate an average value and a standard deviation by each Group. Additionally, plasma insulin levels and blood glucose levels are shown in FIG. 6 and FIG. 7 in bar graphs, respectively.
# SD rats [2] = assay: Effect of 1-kestose on rats taking an ordinary diet (healthy model): serum insulin and blood glucose; assay type: in vivo, rat; details: for Serum insulin level / Blood glucose level: average ± SD; for Serum insulin level: Group A control 4.34 ± 0.51; for Blood glucose level: Group A control 207 ± 11
# Protocol: Feed containing 1-kestose in such a way as to be 0, 0.5, 1, 2.5 and 5 mass % was prepared by CLEA Japan, Inc. on commission. The composition of feed is shown below.
# Cornstarch: 39.7486, milk casein: 20, pregelatinized cornstarch: 13.2, granulated sugar or granulated sugar and 1-kestose: 10, purified soybean oil: 7, cellulose powder: 5, mineral mix: 3.5, vitamin mix: 1, L-cystine: 0.3, choline bitartrate: 0.25, tertiary butyl hydroquinone: 0.0014.
# Forty SD rats (Japan SLC, Inc.) were divided into 5 groups of 8 rats each to be Groups A to E. Group A and Groups B to E had discretionary intake of feed without 1-kestose and 1-kestose-containing feed, respectively, while bred for 30 days. Breeding conditions included a temperature of 23±1° C., a light period of 12 hours (8:00 to 20:00) and a dark period of 12 hours (20:00 to 8:00).
# The obtained serum was measured for an insulin level by ELISA technique and a glucose level by glucose oxidase method, to calculate an average value and a standard deviation by each Group. Additionally, serum insulin levels and blood glucose levels are shown in FIG. 1 and FIG. 2 in bar graphs, respectively.
# [3] = system: LETO (Long-Evans Tokushima Otsuka) rats; assay: Effect of 1-kestose on LETO control rats of the type 2 diabetes model: plasma insulin and blood glucose; assay type: in vivo, rat
# Protocol: as §1, §2
# [4] = Food processing and ingredients, Vol. 49, No. 12, p. 9, 2014; cited from earlier work
# SD rats [5] = assay: Effects of 1-kestose on rats taking a high-fat diet (obese model) or ordinary diet: plasma insulin, blood glucose, body weight; assay type: in vivo, rat; details: for Plasma insulin level / Blood glucose level: 135 days; for Plasma insulin level / Blood glucose level / Body weight: average ± SD; for Body weight: end of breeding period (19 weeks)
# Protocol: SD rats (Japan SLC, Inc.) were divided into 4 groups of 6 to 8 rats each to be Group A to Group D. During the breeding period, Group A and Group C had discretionary intake of tap water. On the other hand, Group B and Group D were allowed to take 1-kestose by providing discretionary intake of a solution in which 1-kestose was dissolved in purified water in such a way as to be 2 mass %. Additionally, Group A and Group B had discretionary intake of […] (Research Diets, Inc.) as an “ordinary diet”, and Group C and Group D had discretionary intake of D12492 (Research Diets, Inc.) as a “high-fat diet”. The rats were bred for 135 days with the same breeding conditions as Example 1 (1) except feed. The composition of feed is shown below.
# Casein: 200, L-cystine: 3, Cornstarch: 506.2, maltodextrin 10: 125, sucrose: 68.8, cellulose BW200: 50, purified soybean oil: 25, lard: 20, mineral mix S10026: 10, dicalcium phosphate: 13, calcium carbonate: 5.5, potassium citrate monohydrate: 16.5, vitamin mix V10001: 10, choline bitartrate: 2, yellow synthetic dye (FD&C Yellow Dye #1): 0.04, blue synthetic dye (FD&C Blue Dye #1): 0.01.
# Casein: 200, L-cystine: 3, maltodextrin 10: 125, sucrose: 68.8, cellulose BW200: 50, purified soybean oil: 25, lard: 245, mineral mix S10026: 10, dicalcium phosphate: 13, calcium carbonate: 5.5, potassium citrate monohydrate: 16.5, vitamin mix V10001: 10, choline bitartrate: 2, blue synthetic dye (FD&C Blue Dye #1): 0.05.
# As the average intake amount of water taken by a rat per day was about 22 mL/rat.
# The rats of each Group in this Example 2 (1) were measured for body weight every week during the breeding period, and an average value by each Group was calculated and expressed in line graphs. Note that the body weights (g) of each Group at the start of breeding period were 272±5 for Group A, 268±6 for Group B, 272±3 for Group C, and 269±3 for Group D.
# Further, plasma insulin levels and blood glucose levels were measured by the method described in Example 1 (2) to calculate an average value and a standard deviation by each Group. […] Additionally, insulin levels and glucose levels are shown in FIG. 4 and FIG. 5 in bar graphs, respectively.
# [6] = OLETF rats, Group D, feed containing 1% of 1-kestose (table prints 1.34 g/kg body weight daily)
# [7] = OLETF rats, Group E, feed containing 5% of 1-kestose (2.71 g/kg body weight daily)
# [8] = Group C, feed containing 1% of 1-kestose (0.54 g/kg body weight daily), 30 days
# [9] = Group D, feed containing 2.5% of 1-kestose (1.34 g/kg body weight daily), 30 days
# [10] = Group E, feed containing 5% of 1-kestose (2.71 g/kg body weight daily), 30 days
smiles,measurement,setting,value
OC[C@H]1O[C@@](CO)(OC[C@@]2(O[C@H]3O[C@H](CO)[C@@H](O)[C@H](O)[C@H]3O)O[C@H](CO)[C@@H](O)[C@@H]2O)[C@@H](O)[C@@H]1O [1-kestose],Plasma insulin levels compared with OLETF rats not taking 1-kestose,[1]; Group C>Group D>Group E,lower plasma insulin levels
same,Plasma insulin level,[1]; [6],3.04 ± 0.69 ng/mL
same,Blood glucose level,[1]; [6],163 ± 4 mg/dL
same,Plasma insulin level,[1]; [7],2.53 ± 0.29 ng/mL
same,Blood glucose level,[1]; [7],157 ± 3 mg/dL
same,Blood glucose levels compared among groups,"[1]; OLETF rats, regardless of whether or not 1-kestose was taken",equivalent blood glucose levels
same,Serum insulin level,"SD rats [2]; Group B, feed containing 0.5% of 1-kestose (0.27 g/kg body weight daily), 30 days, n=8",3.04 ± 0.38 ng/mL
same,Blood glucose level,"SD rats [2]; Group B, feed containing 0.5% of 1-kestose (0.27 g/kg body weight daily), 30 days",202 ± 10 mg/dL
same,Serum insulin level,SD rats [2]; [8],3.08 ± 0.31 ng/mL
same,Blood glucose level,SD rats [2]; [8],192 ± 11 mg/dL
same,Serum insulin level,SD rats [2]; [9],2.56 ± 0.31 ng/mL
same,Blood glucose level,SD rats [2]; [9],202 ± 4 mg/dL
same,Serum insulin level,SD rats [2]; [10],2.01 ± 0.24 ng/mL
same,Blood glucose level,SD rats [2]; [10],188 ± 7 mg/dL
same,Blood glucose levels compared with rats not taking 1-kestose,"SD rats [2]; Groups A to E, irrelevant to the intake amount",equivalent blood glucose levels
same,Serum insulin levels compared with Group A (rats not taking 1-kestose),"SD rats [2]; Groups B, C, D and E (0.5 to 5% 1-kestose in feed) vs Group A, 30 days",significantly lower
same,Plasma insulin levels compared with LETO rats not taking 1-kestose,[3]; Group B vs Group A,lower plasma insulin levels
same,Plasma insulin level,"[3]; LETO rats, Group B, feed containing 5% of 1-kestose (2.71 g/kg body weight daily), 14 days, average ± SD, Group A control 1.49 ± 0.19",1.08 ± 0.09 ng/mL
same,Blood glucose level,"[3]; LETO rats, Group B, feed containing 5% of 1-kestose (2.71 g/kg body weight daily), 14 days, average ± SD, Group A control 146 ± 3",144 ± 2 mg/dL
same,Blood glucose levels compared among groups,"[3]; LETO rats, regardless of whether or not 1-kestose was taken",equivalent blood glucose levels
same,"Toxicity in mutagenicity test, acute toxicity test, subchronic toxicity test and chronic toxicity test",[4],not recognized to have toxicity
same,Blood glucose levels compared among groups,"SD rats [5]; Groups A to D, regardless of whether or not 1-kestose was taken",equivalent blood glucose levels
same,Plasma insulin levels of rats taking the high-fat diet and 1-kestose compared with rats taking the ordinary diet,"SD rats [5]; High-fat diet, Group D vs Groups A and B, Group C notably higher",equivalent plasma insulin levels
same,Plasma insulin level,"SD rats [5]; High-fat diet, Group D, 2 mass % 1-kestose solution (0.44 g/rat daily), Group C tap water 6.65 ± 1.03",2.28 ± 0.63 ng/mL
same,Blood glucose level,"SD rats [5]; High-fat diet, Group D, 2 mass % 1-kestose solution (0.44 g/rat daily), Group C tap water 155 ± 4",147 ± 2 mg/dL
same,Body weight,"SD rats [5]; High-fat diet, Group D, 2 mass % 1-kestose solution (0.44 g/rat daily), Group C tap water 764 ± 32",718 ± 21 g
same,Blood glucose level,"SD rats [5]; Ordinary diet, Group B, 2 mass % 1-kestose solution (0.44 g/rat daily), Group A tap water 147 ± 5",143 ± 3 mg/dL
same,Body weight,"SD rats [5]; Ordinary diet, Group B, 2 mass % 1-kestose solution (0.44 g/rat daily), Group A tap water 665 ± 14",679 ± 22 g
same,Plasma insulin level,"SD rats [5]; Ordinary diet, Group B, 2 mass % 1-kestose solution as drinking water (0.44 g/rat daily), Group A tap water 2.48 ± 0.52",2.30 ± 0.42 ng/mL
